Data from patent publication US7030087B2, “Synthetic approach to designed chemical structures” (priority 1996, dated 2006).

Key:
[1] = test system: ICAM-1; assay: ICAM-1 expression on endothelial cells (immunofluorescence, FACScan); assay type: cell-based, human
Experimental: In a first series of experiments, PF4 and βpep peptides were tested for their ability to prevent bFGF (fibroblast growth factor) mediated downregulation of ICAM-1. […] Simultaneously 100 μg/ml of each PF4, βpep-14, βpep-16, or medium was added. Mean ICAM-1 fluorescence intensity values were determined.
Since the in vivo situation of tumor associated EC involves the low expression or even absence of ICAM-1, the next set of experiments aimed to study the ability to reinduce ICAM-I expression after bFBF preincubation. […] In these experiments, HUVEC were pretreated for 3 days with bFGF, subsequently PF4 was added for 3 days and, where indicated in the last 16 hours of culture 4 ng/ml TNFα was added. Human umbilical vein derived endothelial cells (HUVEC) were harvested from normal human umbilical cords by perfusion with 0.125% trypsin/EDTA as described previously. Cells were cultured in fibronectin (FN) coated tissue culture flasks in culture medium (RPMI-1640 with 20% human serum (HS), supplemented with 2 mM glutamine and 100 U/ml penicillin and 0.1 mg/ml streptomycin). Immunofluorescence using indirect PE-conjugated reagents required three separate incubations. 1×10^5 EC were fixed for 1 hour in 1% paraformaldehyde, resuspended in 20 μl appropriately diluted Mab and incubated for 1 hour on ice. Subsequently, cells were washed two times in PBS/BSA (0.1%) and incubated for another 30 minutes with biotinylated rabbit-anti-mouse Ig (Dako, Glostrup, Denmark). After another 2 washings, cells were incubated with streptavidin-phycoerythrin conjugate (Dako). Stained cells were analyzed on a FACScan flowcytometer. Data analysis was performed using PCLysys software (Becton Dickinson, Mountain View, Calif.). Statistical significance of observed differences was determined using the Student's t-test.
The energy of EC to stimulation with inflammatory cytokines was the subject of a next series of experiments. For these experiments, HUVEC (human vascular endothelial cells) were pretreated with 10 ng/ml bFGF for 3 days. Subsequently, cells are subcultured for 3 days with […] in the presence of PF4. For the last 16 hours of the culture 4 ng/ml TNFα was added to induce upregulation of ICAM-1. […] The regulation of ICAM-1 at the protein level was confirmed in Northern blot analysis for detection of ICAM-1 message. In these experiments, HUVEC were cultured for 3 days with bFGF and treated for the last 4 and 24 hours with PF4 (100 μg/ml). TNFα was added 2 hours before isolation of RNA. RNA from a subconfluent EC cultures (75 cm^2 Petri-dishes) incubated with bFGF for different time-points was isolated using an RNA-zol kit (Campro Scientific, Houston, Tex.). Total RNA (10 μg) for each sample was separated in a 0.8% formaldehyde-denaturing gel, transferred to nitrocellulose (Hybond N+, Amersham International, Amersham, UK) and hybridized to a ^32P-labelled 1.9 Kb c-DNA probe, containing the functional sequence of the human ICAM-1 gene (a gift from Dr. B. Seed). Membranes were washed at a high stringency in 0.2×SSC, 0.1% SDS at 50° C. for 1 hour. Filters were exposed to X-ray films (Kodak X-omat, Eastman Kodak Company, Rochester, N.Y.) using an intensifying screen at −80° C. for not less than 12 hr. Autoradiograms were subjected to scanning using a laser densitometer (Model GS670, Bio-Rad, Hercules, Calif.) and data were analysed with the Molecular Analyst PC™ software. The intensity of the major ICAM-1 mRNA transcript was normalized with respect to actin mRNA expression used as a control.

[2] = test system: endotoxin from E. coli 055:B5; assay: Limulus amoebocyte lysate assay (E-TOXATE), endotoxin neutralization; assay type: biochemical
How it was run: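 Peptide preincubated with LPS 5 min at room temperature in 1:2 pyrogen-free saline (pH 6.4), then amoebocyte lysate added (E-TOXATE kit). Neutralization of endotoxin activity scored by Limulus lysate reaction; BG38L served as positive control.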

platelet factor 4 [PF4]
bFGF mediated downregulation of ICAM-1 (in words) ([1]; 10 ng/ml bFGF for 3 days, 100 μg/ml added simultaneously): did not result in the loss of ICAM-1 expression | expression of ICAM-1 (in words) ([1]; 100 μg/ml, without bFGF): enhanced the expression of ICAM-1 | decreased inflammatory response (TNFα upregulation of ICAM-1) of angiogenic stimulated EC (in words) ([1]; HUVEC 3 days 10 ng/ml bFGF, then 3 days with bFGF and test agent, 4 ng/ml TNFα last 16 hours): overcome | reinduction of ICAM-1 expression after bFGF preincubation (in words) ([1]; HUVEC pretreated 3 days with bFGF, then 100 μg/ml for 3 days in the presence of bFGF): reinduction of ICAM-1 | endotoxin neutralizing activity (in words) [2]: no endotoxin neutralizing activity | Endotoxin Neutralizing Activity, % neutralization ([2]; 5.0 × 10^−5 M peptide, 0.02 U (0.2 pg) endotoxin from E. coli 055:B5, Table 3): 0% | Endotoxin Neutralization, % neutralization ([2]; 5.0 × 10^−6 M Peptide, 0.02 U (0.2 pg) endotoxin from E. coli 055:B5, Table 4): 0% | Endotoxin Neutralization, % at the effective dose ([2]; Table 3, at the ED printed in the same cell): 23% | Endotoxin neutralization, ED, Effective M dose ([2]; Table 3, dose at which the % in brackets was found): 50 µM | Endotoxin Neutralization, % at the effective dose ([2]; Table 4, at the Ed): 0% | Endotoxin Neutralization, Ed, Effective M dose ([2]; Table 4, dose at which the % in brackets was found): 50 µM
